Test results from patent US20170000805A1, “FOOD SUPPLEMENTATION COMPOSITION CONTAINING ONE OR MORE VITAMIN D3 COMPOUNDS AND ONE OR MORE MAGNESIUM SALTS” (DSM IP ASSETS B.V., priority 2006, published 2017).

Assays:
[1] = cited from earlier work
[2] = MgCl2 and Hy-D dosed into the rumen of fistulated cattle: urine pH, urine and blood plasma minerals; type: in vivo
Method: Four mature rumen fistulated cattle (approximately 600 kg […] in individual pens and offered 12 kg/day of good quality lucerne chaff throughout the experiment. After a 2 week adaptation to this diet the following treatments were applied daily over 2 weeks to each animal in a Latin Square Design: 1. no supplement (control) 2. […] 3. […]® 1.25% (5 mg 25-hydroxy vitamin D3) MgCl2 plus […]® 1.25 % Each treatment was dosed into the rumen through a cannula each morning during the 2 week experimental period. […] Urine pH was measured at time of collection; blood plasma was decanted after centrifugation and analyzed for calcium, magnesium, potassium, sodium and phosphorus by inductively coupled plasma atomic emission spectrophotometry. The results were analysed as a latin square design making comparisons between treatments after removal of any animal or period effects. The lucerne […] assayed for macro cations together with chloride and sulphur concentrations.

[3] = blood samples on days 7, 13 and 14
[4] = urine samples on days 12, 13 and 14

SMILES	activity relative to 25-hydroxy vitamin D3 [1]	Blood Plasma composition Ca2+ [2, 3] [mg/L]	Blood Plasma composition K+ [2, 3] [mg/L]	Blood Plasma composition Mg2+ [2, 3] [mg/L]	Blood Plasma composition Na+ [2, 3] [mg/L]	Blood Plasma composition Phosphorus [2, 3] [mg/L]	Urine Composition Ca2+ [2, 4] [b mg/L]	Urine Composition K+ [2, 4] [mg/L]	Urine Composition Mg2+ [2, 4] [mg/L]	Urine Composition Na+ [2, 4] [mg/L]	Urine Composition Phosphorus [2, 4] [mg/L]	Urine pH ([2]; urine samples on days 12, 13 and 14, measured at time of collection) [b]
C=C1/C(=C\C=C2/CCC[C@]3(C)[C@@H]([C@H](C)CCCC(C)(C)O)CC[C@@H]23)C[C@@H](O)C[C@@H]1O [1-α-, 25-dihydroxy vitamin D3]	approximately 10 times	–	–	–	–	–	–	–	–	–	–	–
C=C1/C(=C\C=C2/CCC[C@]3(C)[C@@H]([C@H](C)CCCC(C)C)CC[C@@H]23)C[C@@H](O)C[C@@H]1O [1-α-hydroxy vitamin D3]	approximately 10 times	–	–	–	–	–	–	–	–	–	–	–
[Cl-].[Cl-].[Mg+2] [Mg, magnesium chloride]	–	87	233	19	2280	74	397	6652	411	444	190	6.20
